Assay results reported in paper PMC11674800, “Second-Generation Antipsychotics Induce Metabolic Disruption in Adipose Tissue-Derived Mesenchymal Stem Cells Through an aPKC-Dependent Pathway” (Cells, 2024).

How the values were obtained:
[1] = test system: PPARG, FABP4, HSL, and LPL; experiment: Adipogenic gene expression (real-time PCR); assay type: cell-based, human; details: differentiated cells cotreated with 5 µM
Description: After treatment, RNA was extracted using the phenol/chloroform method (RNAzol, Sigma-Aldrich, Saint Louis, MO, USA) followed by isopropanol precipitation, according to the manufacturer’s instructions. The precipitated RNA was then washed with 75% ice-cold ethanol and resuspended in water. The RNA concentration was measured using NanoDrop 2000. cDNA was synthesized via reverse transcription using recombinant Moloney murine leukemia virus reverse transcriptase (MultiScribe Reverse Transcriptase, Bio-Rad, Hercules, CA, USA) and the iScript cDNA Synthesis Kit (Bio-Rad, Hercules, CA, USA). Gene expression was analyzed using real-time PCR using the SsoAdvanced Universal SYBR Green Supermix Kit (Bio-Rad, Hercules, CA, USA). Relative quantification was calculated using the ΔΔCt method.

[2] = test system: ADSCs; experiment: Transferrin uptake (clathrin-dependent endocytosis); assay type: cell-based, human; details: 16 h treatment; transferrin 5 min
Description: (§1) For INSRβ endocytosis experiments, the cells were stimulated with 50 ng/mL insulin for 15 min. For transferrin endocytosis experiments, the cells were incubated with 25 μg/mL Transferrin Texas Red for 5 min. After treatment, the cells were washed with PBS and fixed with 4% PFA for 10 min at room temperature, followed by an additional PBS wash. The cells were then permeabilized by incubating them with cold HEPES-Triton X-100 buffer for 5 min at 4 °C. After permeabilization, the cells were incubated with primary antibodies for 30 min, followed by incubation with Alexa Fluor 488- or 546-conjugated secondary antibodies (Invitrogen, Waltham, MA, USA) and phalloidin, labeled with either Alexa Fluor 546 or 633 (Invitrogen Waltham, MA, USA) for 30 min. After incubation, coverslips were mounted on glass slides using a mounting medium. Images were acquired using a confocal microscope (Leica TCS SP8, Wetzlar, Germany) and analyzed using ImageJ (v 1.52a) software in order to quantify and analyze the fluorescence signals.

[3] = test system: ADSCs; experiment: Acidic vesicle quantification (Lysotracker); assay type: cell-based, human
Description: After treatment, the medium was removed, and the cells were stained with 50 nM Lysotracker Deep Red (Invitrogen, Waltham, MA, USA) and 5 μg/mL Hoechst 33342 (Sigma). Staining was conducted in the dark at 37 °C for 30 min. Fluorescence signals were captured using a FLoid Cell Imaging Station (Life Technology, Carlsbad, CA, USA). The ratio of Lysotracker red signal to blue nuclear signal was quantified using ImageJ software. For acidic vesicle rescue experiments, ADSCs were plated at a concentration of 10,000 cells per well in 48-well plates.

[4] = test system: LC3B; experiment: Autophagy induction (LC3B Western blot, LAMP1/LC3B colocalization); assay type: cell-based, human; details: 16 h treatment
Description: (§2) After treatments, whole-cell lysates were prepared using RIPA lysis buffer supplemented with protease inhibitors (AEBSF, aprotinin, bestatin, E-64, EDTA, leupeptin, Sigma-Aldrich, Saint Louis, MO, USA) and orthovanadate (Sigma-Aldrich, Saint Louis, MO, USA). The proteins in the lysates were collected and quantified using the Pierce BCA protein assay kit (Thermo Fisher Scientific, Waltham, MA, USA). Subsequently, the proteins were denatured by heating at 95 °C for 5 min in the presence of 2% Sodium Dodecyl Sulfate (SDS, Sigma-Aldrich, Saint Louis, MO, USA), 150 mM dithiothreitol (DTT, Sigma-Aldrich, Saint Louis, MO, USA), and 0.01% bromophenol blue (Sigma-Aldrich, Saint Louis, MO, USA). The samples were then analyzed using SDS-PAGE (SDS-Polyacrylamide Gel Electrophoresis) and Western blotting (WB).
as §1

[5] = test system: PKCζ; experiment: PKC activation (Western blot, P-PKCζ T560 immunofluorescence); assay type: cell-based, human; details: 5 μM, 16 h
Description: as §2, §1

[6] = test system: ADSCs; details: 7 days; 1 to 50 μM

Cc1cc2c(s1)Nc1ccccc1N=C2N1CCN(C)CC1 [olanzapine]
expression of genes related to adipogenesis (PPARG, FABP4, HSL, LPL) [1]: significantly reduced expression | short-term transferrin endocytosis [2]: significant reduction | acidic compartment accumulation (Lysotracker staining) [3]: progressive time- and dose-dependent increase | concentrations at which acidic compartment accumulation was observed [3]: below 1 µM | colocalization of LAMP1 with LC3B [4]: not observed | conversion of LC3B-I to LC3B-II [4]: not after olanzapine | canonical PKCs (cPKCs) and atypical PKCζ activation state ([5]; Western blot): activation | increase in nuclear P-PKCζ T560 ([5]; immunofluorescence): 2 fold | effects on cell viability [6]: negligible effects
